Experimental data taken from patent EP1024807B1, “USE OF THE COMPOUND 2-METHOXYPHENYL-1-METHYL-5P-METHYLBENZOYL-PYRROL-2-ACETAMIDO ACETATE FOR THE PRODUCTION OF AN ANTI-INFLAMMATORY DRUG WITH PREVENTION OF GASTRIC HYPERSECRETION AND RENAL IMPAIRMENT” (MEDOSAN Ricerca S.r.l., priority 1997, dated 1999).

Legend:
Rats [1] = assay: Carrageenan pleurisy, exudate volume at 4 hours; format: in vivo; details: for Exudate volume: 4 hour; for decrease exudate volume: compared to gum tragacanth control
Method: Compounds were administered orally 1 hour prior to and 1 hour post pleurisy induction in a volume of 0.5 ml 1% gum tragacanth. Indomethacin was used at 3 mg/kg. MED 15 was used at 25, 50 and 100 mg/kg.
A 1% solution of carrageenan in sterile saline was prepared. The solution was placed in an incubator at 37°C for half an hour to allow complete hydration of the carrageenan. The solution was then mixed to homogeneity.
A 21Gx40mm syringe needle was reduced in length to 5mm and fitted to a 1ml syringe containing the irritant. Rats were lightly anaesthetised with halothane. Each animal was placed on its left side. The skin over the thorax was lifted with and a 1cm incision made through the skin with a pair of scissors. The wound was opened to expose the underlying muscle. Using a scalpel, a 2-3mm incision was made into the muscle of the 5th-6th intercostal space. A volume of 0.15ml of carrageenan solution was then injected into the pleural cavity. The wound was closed with a 11mm Michel clip and the animal allowed to recover from the anaesthetic. Groups of animals were killed 4 hours after pleurisy induction.
Lavage solution: One part of 3.15% trisodium citrate solution, mixed with nine parts of Hank's balanced salt solution.
Rats were killed by over exposure to carbon dioxide. For each rat the skin over the thorax was moistened with IMS alcohol. The skin over the sternum was then lifted and a 5cm cut made, to expose the musculature of the upper abdomen and thoracic cavity. The muscle overlying the xiphisternum was lifted with tissue forceps and a 1cm cut made through the muscle to reveal the cartilage. This was then lifted and the diaphragm perforated just beneath the cartilage. Two cuts were then made through the rib cage either side of the cartilage to form a flap which could be folded back to expose the thoracic cavity.
Using a syringe, 1ml of lavage fluid was introduced into the thoracic cavity. The fluid was aspirated 2-3 times with a 3ml pastette to wash the cavity, before being collected into separate 10ml conical-based plastic test-tubes. Any blood contaminated fluids were rejected.
The mass of each tube with fluid was determined. By subtracting the mass of an empty tube from these values, and assuming a density for the fluid of 1g/cm^3, the fluid volume was quantified.
Results were analysed by ANOVA followed by Bonferroni T-test. Values of p<0.05 were considered significant.
Dosing was one hour prior to and one hour post pleurisy induction and inflammation was assessed at 4 hours.

rabbit = assay: Fertility, embryotoxicity and teratogenicity studies; format: in vivo
Salmonella Typhimurium = format: cell-based
Saccharomycetes pombe Pl = format: cell-based
Saccharomycetes D4 = assay: Mitotic conversion test; format: cell-based
[2] = tested on: human lymphocites cultivated in vitro; assay: Chromosome aberrations in lymphocytes in vitro; format: cell-based
patients = assay: Clinical trials: tolerability, adverse events and suspensions of treatment; format: in vivo, man; details: in vivo
Description: Interest in the amtolmetin guacyl molecule arose following a thorough analysis of the results of 31 comparative and 6 non-comparative clinical trials involving 1596 patients. […] Turthermore the physician, being aware of administering an NSAID, was expecting adverse events and could not be expected to be an impartial observer. The few cases of gastro-intestinal phenomena reported with amtolmetin guacyl were transitory and in no event accompanied by the presence of occult blood in the stools. Moreover, even in the presence of a reported side-effect it was almost never necessary to suspend treatment (0.4% of suspensions).
Following are summarized the results obtained on a total of 1596 patients in 37 clinical trials.
Confirmation of the above described advantages is the very low incidence of treatment suspension for adverse events found in clinics (Table 17), which is not the case for most of NSAIDs known in the art (Table 18).

[3] = tested on: gastric bicarbonate secretion; assay: Gastric bicarbonate secretion after stimulation with histamine; format: in vivo, rat; details: fig. 6
[4] = tested on: guinea-pig isolated ileum; assay: Intestinal motility in isolated ileum with various agonists; details: all of the traditional agonists (histamine, acetylcholine, serotonin)
Description: In parallel we also studied the possible effect on intestinal motility in the guinea-pig isolated ileum (b.r. No. 29) using various agonists (fig. 7, 8 and 9).

Rats [5] = assay: Diuresis in normally hydrated rats; format: in vivo
Method: In the course of various studies conducted on animals to show the lack of renal impairment, a test was carried out to compare the diuresis in normally hydrated rats treated orally for 8 consecutive days with amtolmeting guacyl and diclofenac, which is also a NSAID. […] It is to be stressed that the behaviour of diclofenac is completely in line with the behaviour of a NSAID as known in the art, that is to say to markedly reduce the diuresis, while that of amtolmeting guacyl is completely unforeseeable.
Repeated doses (one per day) for 8 days increased diuresis in the treated rats by 35% (see fig. 13).

gastric acid secretion = assay: Gastric acid secretion in the rat; format: in vivo
Description: On the basis of the above series of observations, we decided to study the pharmacological behaviour of a number of widely used NSAIDs (including amtolmetin guacyl) towards the gastric mucosa in the rat, as previously described. […] The first hypothesis was that we were deling with an anti-H2 drug, given the fact that its potency could be compared with that of cimetidine.
The introduction of a guaiacol moiety into the amtolmetin guacyl molecule led to the insertion of a vanilloid radical which confers gastroprotective properties to the molecule.

[6] = tested on: post-traumatic arthralgia; assay: Clinical comparison in post-traumatic arthralgia; format: in vivo, man
Description: The same can be said in the treatment of post-traumatic arthralgia.

COX1 (cyclooxygenase 1) = biological target: T1, COX1 (cyclooxygenase 1) (Rattus norvegicus, UniProt Q63921); assay: Pharmacological studies in rats: cyclooxygenase inhibition; details: in vivo
T1 construct: the pharmacological studies conducted in rats; from tissue; host or cells: rat (in vivo; tissue not given)
T1 sequence (Q63921 27-602): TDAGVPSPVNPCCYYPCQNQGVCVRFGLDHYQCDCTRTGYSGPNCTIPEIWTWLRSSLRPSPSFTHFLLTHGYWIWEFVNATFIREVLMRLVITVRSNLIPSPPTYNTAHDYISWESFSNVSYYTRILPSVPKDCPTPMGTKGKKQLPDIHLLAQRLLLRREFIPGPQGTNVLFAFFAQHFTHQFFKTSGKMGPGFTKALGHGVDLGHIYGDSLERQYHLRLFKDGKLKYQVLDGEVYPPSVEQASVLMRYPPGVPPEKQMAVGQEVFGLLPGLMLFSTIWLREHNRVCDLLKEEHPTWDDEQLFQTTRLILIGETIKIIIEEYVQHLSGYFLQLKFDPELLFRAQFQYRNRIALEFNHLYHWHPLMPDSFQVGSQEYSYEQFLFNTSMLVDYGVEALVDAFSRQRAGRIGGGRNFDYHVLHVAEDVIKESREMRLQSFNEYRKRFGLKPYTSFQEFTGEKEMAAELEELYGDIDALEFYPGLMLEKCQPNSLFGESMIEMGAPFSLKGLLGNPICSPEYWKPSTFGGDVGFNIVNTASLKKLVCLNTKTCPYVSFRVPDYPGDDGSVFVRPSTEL

COX2 (cyclooxygenase 2) = biological target: T2, COX2 (cyclooxygenase 2) (Rattus norvegicus, UniProt P35355); assay: as above; details: in vivo
T2 construct: the pharmacological studies conducted in rats; from tissue; host or cells: rat (in vivo; tissue not given)
T2 sequence (P35355 18-604): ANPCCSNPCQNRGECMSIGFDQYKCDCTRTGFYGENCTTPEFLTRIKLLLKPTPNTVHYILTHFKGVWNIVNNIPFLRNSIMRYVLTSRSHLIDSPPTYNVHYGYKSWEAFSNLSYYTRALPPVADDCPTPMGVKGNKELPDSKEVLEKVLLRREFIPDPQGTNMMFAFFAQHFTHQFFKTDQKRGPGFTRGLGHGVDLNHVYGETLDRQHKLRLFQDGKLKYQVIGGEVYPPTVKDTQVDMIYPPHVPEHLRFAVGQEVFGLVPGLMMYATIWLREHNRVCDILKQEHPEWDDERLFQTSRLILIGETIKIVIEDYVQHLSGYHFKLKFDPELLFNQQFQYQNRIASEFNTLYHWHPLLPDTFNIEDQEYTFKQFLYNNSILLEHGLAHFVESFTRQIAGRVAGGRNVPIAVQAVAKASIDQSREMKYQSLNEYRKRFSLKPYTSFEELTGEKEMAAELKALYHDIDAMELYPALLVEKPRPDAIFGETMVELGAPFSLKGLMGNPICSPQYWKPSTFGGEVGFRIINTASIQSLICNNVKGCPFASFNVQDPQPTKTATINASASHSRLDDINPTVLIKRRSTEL

COc1ccccc1OC(=O)CNC(=O)Cc1ccc(C(=O)c2ccc(C)cc2)n1C [MED 15, 2-methoxyphenyl-1-methyl-5p-methylbenzoylpyrrol-2-acetamido acetate]
Exudate volume (Rats [1]; 25mg/kg orally 1 hour prior to and 1 hour post induction): 0.84 ± 0.09 mL | decrease exudate volume (Rats [1]; 25mg/kg): 11% | Exudate volume (Rats [1]; 50mg/kg orally 1 hour prior to and 1 hour post induction): 0.74 ± 0.06 mL | decrease exudate volume (Rats [1]; 50mg/kg): 21% | Exudate volume (Rats [1]; 100mg/kg orally 1 hour prior to and 1 hour post induction): 0.53 ± 0.05 mL | decrease exudate volume (Rats [1]; 100mg/kg): 44% | fertility, embriotoxicity and teratogenicity (rabbit): safety | Ames test (Salmonella Typhimurium): absence of amtolmetin guacyl-related damage | forward mutation (Saccharomycetes pombe Pl): absence of amtolmetin guacyl-related damage | mitotic conversion (Saccharomycetes D4): absence of amtolmetin guacyl-related damage | chromosomic aberrations [2]: absence of amtolmetin guacyl-related damage | Treatment suspended (patients; human): 4 | incidence of adverse events involving the stomach (patients; human): ~5% | reports of gastric discomfort (patients; human): 4% | Treatment suspended (patients; human, 10 days): 3 | Treatment suspended % (patients; human, 10 days): 1,6% | Treatment suspended (patients; human, 21 days): 0 | Treatment suspended (patients; human, 30 days): 1 | Treatment suspended % (patients; human, 30 days): 0,7% | Treatment suspended (patients; human, 60 days): 0 | Treatment suspended (patients; human, 90 days): 0 | Treatment suspended (patients; human, 120 days): 0 | Treatment suspended (patients; human, 150 days): 0 | Treatment suspended (patients; human, 180 days): 0 | gastric lesions (patients): not to induce gastric lesions | variations of the routine biological parameters (patients): no significant variations | increase in bicarbonate production [3]: 67% | motility [4]: decrease in motility | increased diuresis (Rats [5]; repeated doses (one per day) for 8 days): 35% | increased diuresis (Rats [5]; single dose, average): 10% | diuresis (Rats [5]; treated orally for 8 consecutive days, fig. 13): definite increase in diuresis | basal acid secretion (gastric acid secretion; basal, unstimulated): fails to modify | effect on gastric acid (gastric acid secretion; rat, in vivo): reduction of gastric acid | activity on gastric secretion after CGRP antagonist (gastric acid secretion; with CGRP8-37, peptone-stimulated, fig. 14): blockage | effect on gastric acid secretion after capsaicin receptor antagonist (gastric acid secretion; with capsazepine, peptone-stimulated, fig. 16): inhibited by the capsazepine antagonist | duration of effect [6]: 6 h | latency time [6]: 20 min | time to reach peak effect [6]: 1 h | inhibition of COX1 (COX1 (cyclooxygenase 1)): inhibition | inhibition of COX2 (COX2 (cyclooxygenase 2)): inhibition
